Measurements reported in patent US7132271B2, “Methods for enhancing the production of viral vaccines in cell culture” (priority 1995, dated 2006).

System: human PKR
Experiment: Western blot analysis of PKR protein in U937 transfectants
Format: cell-based
Details: U937-neo cells
Method: Cell extracts (100 μg) were separated on a 10% SDS-polyacrylamide gel and electrotransferred onto nitrocellulose membrane. The membranes were incubated with anti-PKR monoclonal antibody (Meurs et al. Cell 1990) at 1:1000 in BLOTTO (5% nonfat dry milk, 0.05% Tween-20 in Tris-buffered saline). Final detection of PKR was facilitated by probing with a secondary horseradish peroxidase-conjugated goat anti-mouse antibody (Santa Cruz Biotech) and using a chemiluminesence method (Amersham ECL).

Substance: IFN-γ: recombinant human IFN-γ, Amgen
- PKR protein level following treatment with IFN: increased
